Data set [1] relates to cervix. The following applies: 3000 units in the cervical os, Perezgrovas and Anderson (1982); cited from earlier work.
Data set [2] has as its system cervix. The note with it: 2-mg dose in methylcellulose gel, MacLennan et al. (1981); cited from earlier work.
The next data set deals with rabbit cervix. Nature of the data set: Efficacy on ripening of the rabbit cervix, intravaginal gel. The class given is in vivo. The note with it: initial study, 300 μg/ml topical gel, 0.5 ml intravaginally, eighteen hours after application. As to the method:
Mature pregnant female New Zealand rabbits weighing 4.5 to 6.0 kg were studied. […] Both hormones were applied intravaginally by means of a syringe and a catheter in a volume of 0.5 ml. Control animals received the vehicle alone. After 16-18 hours, the animals were sacrificed using a lethal dose of pentobarbital. […] Paraffin sections were cut and stained with hematoxylin/eosin and alcian blue PAS. Sections were evaluated for general morphology, and specifically for the degree of separation of muscular tissue and collagen fibrils in the submucosa and for the presence of characteristic PAS positive giant cells, which are multinucleate cells of macrophage origin that normally infiltrate the cervix during labor. The measurement of giant cells is accomplished using the procedure described by MacLennan et al., Am J. Obstet. Gynecol., 152: 691-696 (1985).

Data set [3] can be described thus: RP-HPLC stability of topical relaxin (3% methylcellulose gel). The class given is physicochemical. The note with it: in contrast to shortened B-chain human relaxin. As to the method:
The RP-HPLC method used for analyzing the liquid relaxin formulation, described in Example I, was modified for use with topical relaxin samples. Due to the high viscosity of the gel, samples were diluted ten-fold with water, vortexed for ^~ 5 minutes to homogenize the gel, and left undisturbed to let the bubbles rise. Analysis of these samples was performed by injecting 250 μl onto a C4-300 SynChropak (4.6×250 mm) column at room temperature. The initial equilibration buffer was 18% acetonitrile, 0.1% trifluoroacetic acid. The elution was carried out by running a 1%/min. increasing linear acetonitrile gradient to a final concentration of 45% acetonitrile after 30 minutes. The flow rate was held constant at 1.0 ml/min. and the absorbance was monitored at 214 nm. The "slowdown" step (the time it takes to draw the viscous gel into the metering device) was increased from […].
Three significant stability experiments were performed on the topical relaxin formulation. The first was to measure the stability of these preparations after being left out at room temperature for five weeks. The sample remained in the original syringe, subject to the fluctuations of temperature and light.
The second study was a measure of the stability of topical relaxin under well controlled conditions at 5° C. and 25° C. […]

Some results are limits rather than exact numbers.

For porcine relaxin, in the data set with cervix [1], the “time to increased dilatation of the cervix after infusion” value is at most 8 h. The “effect on cervical score” value with cervix [2] is recorded as “improve the cervical score”. Further, the “cervical ripening, morphology of the pregnant cervix” value in the data set with rabbit cervix was “significant dilation and cervical ripening were observed”. Besides, in data set [3], the “degradation of 600 μg/ml porcine relaxin in 3% Methocel gel by HPLC” value is recorded as “degraded very little”.

(Values after patent US5945402A (Genetech, Inc., priority 1995, dated 1999).)
